PubChem BioAssay AID256 (DTP/NCI, 2004)
Several values for one entry are separate records, joined by “and”; a condition that tells them apart may be missing. Identical values can stand only once. Inconclusive results and toxic doses are left out. The calls were made as follows: active = survival T/C of 150% or more; inactive = T/C below 125% in these data.

Tested on: CD2F1 mice, L1210 leukemia ip, survival T/C
Test: NCI In Vivo Anticancer Drug Screen. Data for tumor model L1210 Leukemia (intraperitoneal) in CD2F1 (CDF1) mice
Conditions: higher = longer survival
In short: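 Tumor-bearing mice (transplanted tumor) were split into treated and vehicle control groups, and the measured endpoint of each treated group was divided by that of its vehicle controls.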

[1] = endpoint: median survival time, dose: 50.0 mg/kg/injection, schedule: Q01DX009 (ip), vehicle: saline with Tween-80
[2] = endpoint: mean survival time, dose: 100.0 mg/kg/injection, schedule: Q01DX001 (ip), vehicle: saline
[3] = endpoint: mean survival time, dose: 200.0 mg/kg/injection, schedule: Q01DX001 (ip), vehicle: saline
[4] = endpoint: mean survival time, dose: 400.0 mg/kg/injection, schedule: Q01DX001 (ip), vehicle: saline
[5] = endpoint: mean survival time, dose: 6.25 mg/kg/injection, schedule: Q01DX009 (ip), vehicle: saline
[6] = endpoint: mean survival time, dose: 12.5 mg/kg/injection, schedule: Q01DX009 (ip), vehicle: saline
[7] = endpoint: mean survival time, dose: 25.0 mg/kg/injection, schedule: Q01DX009 (ip), vehicle: saline
[8] = endpoint: mean survival time, dose: 100.0 mg/kg/injection, schedule: Q04DX003 (ip), vehicle: saline with Tween-80
[9] = endpoint: mean survival time, dose: 200.0 mg/kg/injection, schedule: Q04DX003 (ip), vehicle: saline with Tween-80
[10] = endpoint: mean survival time, dose: 400.0 mg/kg/injection, schedule: Q04DX003 (ip), vehicle: saline with Tween-80
[11] = endpoint: mean survival time, dose: 50.0 mg/kg/injection, schedule: Q01DX009 (ip), vehicle: saline
[12] = endpoint: mean survival time, dose: 100.0 mg/kg/injection, schedule: Q01DX009 (ip), vehicle: saline

Measured: T/C

CC/C(=C(\c1ccccc1)c1ccc(OCCN(C)C)cc1)c1ccccc1
inactive: endpoint: median survival time, dose: 3.12 mg/kg/injection, schedule: Q01DX009 (ip), vehicle: suspension in saline 101 % of control | endpoint: median survival time, dose: 6.25 mg/kg/injection, schedule: Q01DX009 (ip), vehicle: suspension in saline 101 % of control | endpoint: median survival time, dose: 12.5 mg/kg/injection, schedule: Q01DX009 (ip), vehicle: suspension in saline 100 % of control | endpoint: median survival time, dose: 25.0 mg/kg/injection, schedule: Q01DX009 (ip), vehicle: saline with Tween-80 100 % of control | endpoint: median survival time, dose: 25.0 mg/kg/injection, schedule: Q01DX009 (ip), vehicle: suspension in saline 97 % of control | [1] 107 % of control

Nc1nc2c(c(=O)[nH]1)N(C(=S)Nc1ccccc1)C(CNc1ccc(C(=O)NC(CCC(=O)O)C(=O)O)cc1)CN2 (centres undefined)
inactive: [2] 101 % of control | [3] 101 % of control | [4] 104 % of control

O=S(=O)(OCCCCCCOS(=O)(=O)c1cccnc1)c1cccnc1
inactive: endpoint: mean survival time, dose: 10.0 mg/kg/injection, schedule: Q04DX002 (ip), vehicle: saline with Tween-80 107 % of control

CCN=C=NCCCN(C)C
inactive: [5] 105 % of control | [6] 110 % of control | [7] 100 % of control

c1ccc2c(c1)ccc1c[n+]3ccccc3cc12
inactive: endpoint: mean survival time, dose: 1.25 mg/kg/injection, schedule: Q01DX009 (ip), vehicle: saline with Tween-80 95 % of control | endpoint: mean survival time, dose: 5.0 mg/kg/injection, schedule: Q04DX003 (ip), vehicle: saline sonified 96 % of control

O=C(O)C(=O)O.[NH-]CC(O)CN(CC(O)CO)c1ccccc1.[Pt+2] (centres undefined)
inactive: endpoint: median survival time, dose: 10.0 mg/kg/injection, schedule: Q04DX003 (ip), vehicle: distilled water + Tween-80 100 % of control | endpoint: median survival time, dose: 20.0 mg/kg/injection, schedule: Q04DX003 (ip), vehicle: distilled water + Tween-80 98 % of control | endpoint: median survival time, dose: 40.0 mg/kg/injection, schedule: Q04DX003 (ip), vehicle: distilled water + Tween-80 101 % of control | endpoint: median survival time, dose: 80.0 mg/kg/injection, schedule: Q04DX003 (ip), vehicle: distilled water + Tween-80 102 % of control

CCS(=O)(=O)C1(S(=O)(=O)CC)CCCCC1
inactive: [2] 102 % of control | [3] 102 % of control | [4] 102 % of control

COC(CCC#N)c1ccc(Cl)cc1 (centres undefined)
inactive: endpoint: mean survival time, dose: 100.0 mg/kg/injection, schedule: Q01DX009 (ip), vehicle: saline with Tween-80 95 % of control | [8] 97 % of control | endpoint: mean survival time, dose: 200.0 mg/kg/injection, schedule: Q01DX009 (ip), vehicle: saline with Tween-80 101 % of control | [9] 102 % of control | endpoint: mean survival time, dose: 400.0 mg/kg/injection, schedule: Q01DX009 (ip), vehicle: saline with Tween-80 96 % of control | [10] 98 % of control

COc1ccccc1C(=Nc1ccccc1)N(O)c1ccccc1
inactive: endpoint: mean survival time, dose: 2.5 mg/kg/injection, schedule: Q01DX001 (ip), vehicle: saline with Tween-80 114 % of control | endpoint: mean survival time, dose: 2.5 mg/kg/injection, schedule: Q04DX003 (ip), vehicle: saline with Tween-80 101 % of control | endpoint: mean survival time, dose: 5.0 mg/kg/injection, schedule: Q01DX001 (ip), vehicle: saline with Tween-80 112 % of control | endpoint: mean survival time, dose: 5.0 mg/kg/injection, schedule: Q04DX003 (ip), vehicle: saline with Tween-80 101 % of control | endpoint: mean survival time, dose: 10.0 mg/kg/injection, schedule: Q01DX001 (ip), vehicle: saline with Tween-80 114 % of control | endpoint: mean survival time, dose: 10.0 mg/kg/injection, schedule: Q04DX003 (ip), vehicle: saline with Tween-80 98 % of control

CN=C(N)N/N=C(\C)c1ccc2oc3ccc(/C(C)=N/NC(N)=NC)cc3c2c1
inactive: endpoint: median survival time, dose: 4.7 mg/kg/injection, schedule: Q01DX009 (ip), vehicle: saline with Tween-80 123 % of control | endpoint: median survival time, dose: 6.25 mg/kg/injection, schedule: Q01DX009 (ip), vehicle: saline with Tween-80 117 % of control | endpoint: median survival time, dose: 9.38 mg/kg/injection, schedule: Q01DX009 (ip), vehicle: saline with Tween-80 121 % of control | endpoint: median survival time, dose: 12.5 mg/kg/injection, schedule: Q01DX009 (ip), vehicle: saline with Tween-80 123 % of control | [1] 122 % of control | endpoint: median survival time, dose: 75.0 mg/kg/injection, schedule: Q01DX009 (ip), vehicle: saline with Tween-80 90 % of control

NC1=NCN(C2OC(CO)C(O)C2O)C(=O)N1 (centres undefined)
inactive: endpoint: mean survival time, dose: 1.56 mg/kg/injection, schedule: Q01DX009 (ip), vehicle: saline 96 % of control | endpoint: mean survival time, dose: 3.12 mg/kg/injection, schedule: Q01DX009 (ip), vehicle: saline 113 % of control and 120 % of control and 93 % of control | endpoint: mean survival time, dose: 3.13 mg/kg/injection, schedule: Q01DX009 (ip), vehicle: saline 113 % of control | [5] 96 % of control | [6] 89 % of control | [7] 90 % of control and 100 % of control | [11] 110 % of control | endpoint: mean survival time, dose: 50.0 mg/kg/injection, schedule: Q01DX009 (oral), vehicle: saline 96 % of control | [12] 95 % of control | endpoint: mean survival time, dose: 100.0 mg/kg/injection, schedule: Q01DX009 (oral), vehicle: saline 110 % of control | endpoint: mean survival time, dose: 200.0 mg/kg/injection, schedule: Q01DX009 (ip), vehicle: saline 95 % of control | endpoint: mean survival time, dose: 200.0 mg/kg/injection, schedule: Q01DX009 (oral), vehicle: saline 119 % of control | endpoint: mean survival time, dose: 400.0 mg/kg/injection, schedule: Q01DX009 (ip), vehicle: saline 124 % of control | endpoint: mean survival time, dose: 600.0 mg/kg/injection, schedule: Q01DX009 (ip), vehicle: saline 100 % of control | endpoint: mean survival time, dose: 800.0 mg/kg/injection, schedule: Q01DX009 (oral), vehicle: saline 118 % of control | endpoint: median survival time, dose: 1.56 mg/kg/injection, schedule: Q01DX009 (ip), vehicle: saline 110 % of control | endpoint: median survival time, dose: 32.0 mg/kg/injection, schedule: Q03HX008 (ip), vehicle: saline 124 % of control | endpoint: median survival time, dose: 64.0 mg/kg/injection, schedule: Q01DX001 (oral), vehicle: saline 98 % of control | endpoint: median survival time, dose: 64.0 mg/kg/injection, schedule: Q01DX009 (oral), vehicle: saline 100 % of control | endpoint: median survival time, dose: 64.0 mg/kg/injection, schedule: Q03HX008 (ip), vehicle: saline 124 % of control | endpoint: median survival time, dose: 128.0 mg/kg/injection, schedule: Q03HX024 (oral), vehicle: saline 113 % of control | endpoint: median survival time, dose: 128.0 mg/kg/injection, schedule: Q04DX003 (oral), vehicle: saline 98 % of control | endpoint: median survival time, dose: 256.0 mg/kg/injection, schedule: Q01DX001 (ip), vehicle: saline 124 % of control | endpoint: median survival time, dose: 256.0 mg/kg/injection, schedule: Q01DX001 (oral), vehicle: saline 100 % of control | endpoint: median survival time, dose: 256.0 mg/kg/injection, schedule: Q03HX008 (oral), vehicle: saline 118 % of control | endpoint: median survival time, dose: 256.0 mg/kg/injection, schedule: Q04DX003 (oral), vehicle: saline 100 % of control | endpoint: median survival time, dose: 512.0 mg/kg/injection, schedule: Q03HX008 (oral), vehicle: saline 124 % of control | endpoint: median survival time, dose: 512.0 mg/kg/injection, schedule: Q04DX003 (oral), vehicle: saline 113 % of control | endpoint: median survival time, dose: 1024.0 mg/kg/injection, schedule: Q01DX001 (oral), vehicle: saline 124 % of control | endpoint: median survival time, dose: 1024.0 mg/kg/injection, schedule: Q01DX009 (ip), vehicle: saline 92 % of control and 98 % of control | endpoint: median survival time, dose: 1024.0 mg/kg/injection, schedule: Q01DX009 (sc), vehicle: saline 91 % of control

CCCCCN1C(=O)CCC1=O
inactive: [8] 112 % of control | [9] 109 % of control | [10] 104 % of control

N=C(N)SCCSC(=N)N
inactive: [7] 92 % of control | [11] 94 % of control | [12] 94 % of control | endpoint: mean survival time, dose: 100.0 mg/kg/injection, schedule: Q04DX003 (ip), vehicle: saline 100 % of control | endpoint: mean survival time, dose: 200.0 mg/kg/injection, schedule: Q04DX003 (ip), vehicle: saline 105 % of control
